{
  "source": "patent US20220193047A1",
  "about": "“METHODS OF ENHANCING RADIOTHERAPY USING FERROPTOSIS INDUCERS AS RADIOSENSITIZERS” (THE TRUSTEES OF COLUMBIA UNIVERSITY IN THE CITY OF NEW YORK, priority 2019, published 2022)",
  "type_in_all_cases": "cell-based",
  "key": {"HT-1080 cells": {"system": "HT-1080 cells", "test": "Clonogenic assay with Cs-137 gamma radiation, HT-1080", "conditions": "for Highest observed coefficient of Drug Interaction (CDI) in combination with IR: HT-1080; for Enhancement of radiation effect on clonogenic survival: HT-1080, cell death inducer plus radiation; for CDI with 4 Gy IR / CDI with 2 Gy IR: HT-1080 cells, CDI<1 synergy; for CDI with 2 Gy IR: inducer concentration (300 nM IKE, 20 nM RSL3, 1 nM staurosporine, 2 nM doxorubicin, 300 nM rapamycin, 100 ng/mL TNF + 20 μM Z-VAD-FMK + 300 nM birinapant)", "experimental": "(§1) 500 cells were seeded per well in 6-well plates in their respective growth media and incubated overnight. The next day, cells were co-treated with DMSO or compounds and radiation using a Gammacell 40 Caesium-137 irradiator (Theratronics). Plates were monitored every day using a light microscope for formation of colonies in the DMSO-treated wells. When colonies of >50 cells are clearly visible, the growth medium was discarded from all plates. The cells were washed with PBS, then fixed and stained with crystal violet solution (0.05% crystal violet, 1% formaldehyde, 1% methanol in PBS). Colonies were then directly visualized and counted.\nWe tested their ability to prevent clonogenic growth, along with DMSO-treated controls.\n(§2) The coefficient of drug interaction (CDI), used to compute interaction between two drugs, was used to quantify synergy between cell death inducers and radiation according to the formula CDI=AB/(A×B), where AB is the surviving fraction of the combination treatment, and A and B are the surviving fractions of the individual treatments."}, "malondialdehyde (MDA)": {"system": "malondialdehyde (MDA)", "test": "TBARS assay of MDA levels", "conditions": "HT-1080, 24 h; 1 μM IKE or 10 μM ferrostatin-1, with or without 6 Gy radiation", "experimental": "2 million cells were seeded in T175 flasks. […] The whole lysate was used to determine MDA concentration in each sample. We used the TBARS assay kit (Cayman Chemical) and followed the product instructions.\nNext, levels of malondialdehyde (MDA), a biomarker for lipid peroxidation and ferroptosis, were quantified using an assay that measures thiobarbituric acid reactive substances (TBARS) (Gaschler et al., 2018). In this assay, thiobarbituric acid (TBA) was added to cell lysates and heated under acidic conditions to form the MDA-TBA adduct, which was measured colorimetrically."}, "[1]": {"system": "lipid peroxidation in HT-1080 cells", "test": "Lipid ROS assay by flow cytometry (C11-BODIPY)", "conditions": "HT-1080, 24 h, 6 Gy radiation with 1 μM IKE or 50 nM RSL3; ferrostatin-1 co-treatment", "experimental": "0.5 million cells were seeded in 10 cm dishes. The next day, they were co-treated with ferroptosis-modulating compounds and radiation and returned to the incubator. On the following day, cells were harvested in 15 ml tubes and washed twice with PBS followed by re-suspending in 500 μl of PBS containing 10 μM of BODIPY-C11 dye (Thermo Fisher Scientific, cat #D3861), and incubated at 37° C. for 30 minutes. The cells were then collected at 300× g for 5 minutes, washed with PBS three times, and subjected to the flow cytometry analysis. C6 flow cytometry system (BD Accuri cytometers) was used for the flow cytometer analysis. A minimum of 10,000 cells were analyzed per condition.\nTo confirm that radiation causes lipid peroxidation in these cells, lipid peroxidation was also measured with C-11 BODIPY (581/591), a membrane-targeted lipid sensor dye. […] The resulting enhancement was reversed in both cases by also co-treating the cells with ferrostatin-1."}, "[2]": {"system": "γH2AX foci in HT-1080 cells", "test": "γH2AX immunofluorescence staining", "conditions": "for Number of γH2AX foci: HT-1080, 30 minutes, 0 or 6 Gy, 10 μM IKE, 1 μM RSL3, 10 μM ferrostatin-1; for γH2AX foci in irradiated groups vs DMSO: HT-1080, 6 h post-treatment, 6 Gy; for γH2AX foci formation, compound alone: HT-1080, 6 h, no radiation", "experimental": "10,000 cells were seeded on cover slips placed inside wells of 6-well plates. The next day, cells were treated with ferroptosis modulators and/or radiation, then returned to the incubator for 30 minutes or 6 hours. After the growth medium was removed, the cells were washed with PBS and fixed with 100 μl 4% paraformaldehyde per well for 10 minutes at room temperature. After three washes with PBS, cells were permeabilized with 100 μl Triton X-100 (0.1% v/v) per well for 10 minutes incubation at room temperature. Non-specific protein binding was blocked with 100 μl of BSA (1% v/v) per well for 20 minutes at room temperature. After removing excess BSA, 100 μl of primary mouse monoclonal anti-phospho histone-H2AX antibody (1:500) was added to each well for a 1-hour incubation at room temperature. Cells were washed with PBS and incubated with 100 μl of secondary antibody per well for 45 minutes at room temperature in the dark. Cells were washed with PBS and mounted on slides with one drop of Prolong anti-fade reagent with DAPI (Invitrogen) per coverslip. Slides were stored at 4° C. in the dark before analysis on a Zeiss LSM 700 confocal microscope with constant laser intensity for all analyzed samples.\nMechanisms of the cellular lethality from radiation are thought to be mainly derived from the downstream caspase-dependent apoptosis induced by DNA damage, including complex double-strand DNA breaks (Lomax et al., 2013; Morgan and Lawrence, 2015). Therefore, it was desired to determine if ferroptosis inducers and radiation induce DNA damage or affect DNA repair. The extent of these effects of radiation was evaluated by measuring DNA damage and caspase activation in HT-1080 cells co-treated with radiation and ferroptosis inducers. […] The cells were either treated with radiation (6 Gy) or not irradiated (0 Gy) as a control."}, "[3]": {"system": "percent tail DNA in HT-1080 cells", "test": "Comet assay", "conditions": "for DNA damage (percent tail DNA), combined with radiation: HT-1080, 6 Gy, 30 minutes or 4 hours; for DNA single strand damage (percent tail DNA), compound alone: HT-1080, 10 μM IKE or 1 μM RSL3, 30 minutes or 4 hours", "experimental": "100,000 HT-1080 cells were seeded per well in 6-well plates and incubated overnight. On the next day, the cells were treated with ferroptosis modulators and/or radiation, then returned to the incubator for 30 minutes or 4 hours before being harvested with trypsin and counted. The comet assay was performed using the CometAssay kit (Trevigen) following the alkaline comet assay product instructions. All images were captured on a Zeiss LSM 700 confocal microscope with constant laser intensity for all analyzed samples. The fluorescent signal of each comet was analyzed using NIH ImageJ software.\nTo test for other forms of DNA damage that cannot be detected by the γH2AX assay, a comet assay, which detects single strand DNA damage in addition to double strand breaks, was performed in HT-1080 cells treated under the same conditions."}, "U87 cells": {"system": "U87 cells", "test": "Clonogenic assay with radiation, U87", "experimental": "as §1\nas §2, with “treatments. […]” for “treatments.”\n(§3) It was then tested whether cell death enhancement of radiation with ferroptosis inducers occurred across diverse tumor cell types. […] In addition to the initial ferroptosis-sensitive HT-1080 sarcoma cell line, glioma and lung cancer cells were evaluated, due to the clinical relevance of radiation therapy for the treatment of these tumor types. […]"}, "A549 cells": {"system": "A549 cells", "test": "Clonogenic assay with radiation, A549", "experimental": "as §1\nas §2, with “treatments. […]” for “treatments.”\nas §3"}},
  "note": "“Also recorded” adds a separate entry of the source.",
  "data": [
    {"smiles": "CCOC(=O)c1ccc(NC2CCCCC2)c(N)c1", "note": "[ferrostatin-1]", "values": [
      {"measurement": "Colony formation after radiation alone", "setting": "HT-1080 cells; HT-1080, 2 or 4 Gy radiation, no ferroptosis inducer", "value": "significantly rescued colony formation; also recorded: partially rescued cell death induced by radiation alone"},
      {"measurement": "Synergy between IKE or RSL3 and radiation in colony formation", "setting": "HT-1080 cells; HT-1080, co-treatment with ferroptosis inhibitor", "value": "suppress the synergy"},
      {"measurement": "Synergy between sorafenib and radiation in colony formation", "setting": "HT-1080 cells; HT-1080, co-treatment with ferrostatin-1", "value": "partially suppressible"},
      {"measurement": "MDA levels", "setting": "malondialdehyde (MDA)", "value": "significantly lower levels of MDA"},
      {"measurement": "C-11 BODIPY fluorescence", "setting": "[1]", "value": "reversed"},
      {"measurement": "Number of γH2AX foci", "setting": "[2]", "value": "did not affect the number of observed γH2AX foci"},
      {"measurement": "γH2AX foci in irradiated groups vs DMSO", "setting": "[2]", "value": "no differences were observed"},
      {"measurement": "DNA damage (percent tail DNA), combined with radiation", "setting": "[3]", "value": "did not observe a significant protective effect"}
    ]},
    {"smiles": "CC(C)Oc1ccc(C(=O)Cn2ccnc2)cc1-n1c(CN2CCN(C(=O)COc3ccc(Cl)cc3)CC2)nc2ccccc2c1=O", "note": "[IKE, imidazole ketone erastin]", "values": [
      {"measurement": "Highest observed coefficient of Drug Interaction (CDI) in combination with IR", "setting": "HT-1080 cells", "value": 0.17},
      {"measurement": "Enhancement of radiation effect on clonogenic survival", "setting": "HT-1080 cells", "value": "significantly enhanced the effects of radiation"},
      {"measurement": "CDI with 4 Gy IR", "setting": "HT-1080 cells", "value": 0.17},
      {"measurement": "CDI with 2 Gy IR", "setting": "HT-1080 cells", "value": 0.35},
      {"measurement": "Highest observed coefficient of Drug Interaction (CDI) in combination with IR", "setting": "U87 cells", "value": 0.65},
      {"measurement": "Highest observed coefficient of Drug Interaction (CDI) in combination with IR", "setting": "A549 cells", "value": 0.30},
      {"measurement": "MDA levels", "setting": "malondialdehyde (MDA)", "value": "significantly elevated"},
      {"measurement": "C-11 BODIPY fluorescence", "setting": "[1]", "value": "significantly increased C-11 BODIPY fluorescence"},
      {"measurement": "Number of γH2AX foci", "setting": "[2]", "value": "did not affect the number of observed γH2AX foci"},
      {"measurement": "γH2AX foci formation, compound alone", "setting": "[2]", "value": "did not result in γH2AX foci formation"},
      {"measurement": "γH2AX foci in irradiated groups vs DMSO", "setting": "[2]", "value": "no differences were observed"},
      {"measurement": "DNA single strand damage (percent tail DNA), compound alone", "setting": "[3]", "value": "not detect a significant increase"},
      {"measurement": "DNA damage (percent tail DNA), combined with radiation", "setting": "[3]", "value": "no significant enhancement of DNA damage"}
    ]},
    {"smiles": "COC(=O)c1ccc([C@@H]2c3[nH]c4ccccc4c3C[C@@H](C(=O)OC)N2C(=O)CCl)cc1", "note": "[RSL3, Ras Synthetic Lethal 3]", "values": [
      {"measurement": "Highest observed coefficient of Drug Interaction (CDI) in combination with IR", "setting": "HT-1080 cells", "value": 0.09},
      {"measurement": "Enhancement of radiation effect on clonogenic survival", "setting": "HT-1080 cells", "value": "significantly enhanced the effects of radiation"},
      {"measurement": "CDI with 4 Gy IR", "setting": "HT-1080 cells", "value": 0.09},
      {"measurement": "CDI with 2 Gy IR", "setting": "HT-1080 cells", "value": 0.27},
      {"measurement": "Highest observed coefficient of Drug Interaction (CDI) in combination with IR", "setting": "U87 cells", "value": 0.31},
      {"measurement": "Highest observed coefficient of Drug Interaction (CDI) in combination with IR", "setting": "A549 cells", "value": 0.31},
      {"measurement": "C-11 BODIPY fluorescence", "setting": "[1]", "value": "significantly increased C-11 BODIPY fluorescence"},
      {"measurement": "Number of γH2AX foci", "setting": "[2]", "value": "did not affect the number of observed γH2AX foci"},
      {"measurement": "γH2AX foci formation, compound alone", "setting": "[2]", "value": "did not result in γH2AX foci formation"},
      {"measurement": "γH2AX foci in irradiated groups vs DMSO", "setting": "[2]", "value": "no differences were observed"},
      {"measurement": "DNA single strand damage (percent tail DNA), compound alone", "setting": "[3]", "value": "not detect a significant increase"},
      {"measurement": "DNA damage (percent tail DNA), combined with radiation", "setting": "[3]", "value": "no significant enhancement of DNA damage"}
    ]}
  ]
}
